Measured values published in ChEMBL document CHEMBL1201862, “PubChem BioAssay data set” (2004).
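Growth conditions: 96-well plates. Treatment: test compound, 48 hours, 5 concentrations. Analysis: linear interpolation between bracketing concentrations; unreached endpoints set to highest concentration. Abbreviation: GI50, concentration required for 50% inhibition of growth.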 Active and inactive are the calls of the source. No stated cut-off is given here; in the data, active = GI50 up to about 1.1 µM and inactive = higher.

What was measured:
Test in all cases: NCI anticancer screen, dose series, 48 h
[1] = test system: 786-0
[2] = test system: A549
[3] = test system: ACHN
[4] = test system: BT-549
[5] = test system: CAKI-1
[6] = test system: CCRF-CEM
[7] = test system: COLO 205
[8] = test system: DLD-1
[9] = test system: DMS-114
[10] = test system: DMS-273
[11] = test system: DU-145
[12] = test system: EKVX
[13] = test system: HCC 2998
[14] = test system: HCT-116
[15] = test system: HCT-15
[16] = test system: HL-60
[17] = test system: HOP-18
[18] = test system: HOP-62
[19] = test system: HOP-92
[20] = test system: HT-29
[21] = test system: Hs-578T
[22] = test system: IGROV-1
[23] = test system: K562
[24] = test system: KM-20L2
[25] = test system: KM12
[26] = test system: LOX IMVI
[27] = test system: LXFL 529
[28] = test system: M14
[29] = test system: M19-MEL
[30] = test system: MDA-MB-231
[31] = test system: MDA-MB-435
[32] = test system: MDA-N
[33] = test system: MOLT-4
[34] = test system: Malme-3M
[35] = test system: NCI-H226
[36] = test system: NCI-H23
[37] = test system: NCI-H460
[38] = test system: NCI-H522
[39] = test system: NCI/ADR-RES
[40] = test system: OVCAR-3
[41] = test system: OVCAR-4
[42] = test system: OVCAR-5
[43] = test system: OVCAR-8
[44] = test system: PC-3
[45] = test system: RPMI-8226
[46] = test system: RXF 393
[47] = test system: SF-268
[48] = test system: SF-295
[49] = test system: SF-539
[50] = test system: SK-MEL-28
[51] = test system: SK-MEL-2
[52] = test system: SK-MEL-5
[53] = test system: SK-OV-3
[54] = test system: SN12C
[55] = test system: SNB-19
[56] = test system: SNB-75
[57] = test system: SNB-78
[58] = test system: SR
[59] = test system: SW-620
[60] = test system: T47D
[61] = test system: TK-10
[62] = test system: U-251
[63] = test system: UACC-257
[64] = test system: UACC-62
[65] = test system: UO-31
[66] = test system: XF498

Cn1cnc([N+](=O)[O-])c1Sc1nc(N)nc2c1ncn2C1OC(CO)C(O)C1O (stereo unspecified)
GI50 [1]: 3.14 µM (inactive) | GI50 [2]: 11 µM (inactive) | GI50 [3]: 9.04 µM (inactive) | GI50 [4]: 8.41 µM (inactive) | GI50 [5]: 6.19 µM (inactive) | GI50 [6]: 3.15 µM (inactive) | GI50 [7]: 7.83 µM (inactive) | GI50 [8]: 7.67 µM (inactive) | GI50 [9]: 10.7 µM (inactive) | GI50 [10]: 4.17 µM (inactive) | GI50 [11]: 2.36 µM (inactive) | GI50 [12]: 8.39 µM (inactive) | GI50 [13]: 2.77 µM (inactive) | GI50 [14]: 3.85 µM (inactive) | GI50 [15]: 6.84 µM | GI50 [16]: 9.44 µM (inactive) | GI50 [17]: 44.7 µM (inactive) | GI50 [18]: 1.44 µM (inactive) | GI50 [19]: 1.33 µM (inactive) | GI50 [20]: 6.27 µM (inactive) | GI50 [21]: 1.97 µM (inactive) | GI50 [22]: 12.7 µM (inactive) | GI50 [23]: 5.13 µM (inactive) | GI50 [24]: 3.06 µM (inactive) | GI50 [25]: 5.51 µM (inactive) | GI50 [26]: 1.09 µM (active) | GI50 [27]: 45.8 µM (inactive) | GI50 [28]: 2.28 µM (inactive) | GI50 [29]: 35.2 µM (inactive) | GI50 [30]: 0.783 µM (active) | GI50 [31]: 1.5 µM (inactive) | GI50 [32]: 2.73 µM (inactive) | GI50 [33]: 5 µM (inactive) | GI50 [34]: 17.8 µM (inactive) | GI50 [35]: 15.8 µM (inactive) | GI50 [36]: 4.16 µM (inactive) | GI50 [37]: 1.69 µM (inactive) | GI50 [38]: 9.38 µM (inactive) | GI50 [39]: 0.182 µM (active) | GI50 [40]: 4.9 µM (inactive) | GI50 [41]: 16.4 µM (inactive) | GI50 [42]: 1.88 µM (inactive) | GI50 [43]: 2.51 µM (inactive) | GI50 [44]: 1.52 µM (inactive) | GI50 [45]: 2.98 µM (inactive) | GI50 [46]: 3.78 µM (inactive) | GI50 [47]: 4.44 µM (inactive) | GI50 [48]: 3.46 µM (inactive) | GI50 [49]: 2.9 µM (inactive) | GI50 [50]: 28 µM (inactive) | GI50 [51]: 0.497 µM (active) | GI50 [52]: 6.22 µM (inactive) | GI50 [53]: 3.48 µM (inactive) | GI50 [54]: 7.11 µM (inactive) | GI50 [55]: 44.6 µM (inactive) | GI50 [56]: 6.44 µM (inactive) | GI50 [57]: 7.26 µM (inactive) | GI50 [58]: 1.53 µM (inactive) | GI50 [59]: 28.1 µM (inactive) | GI50 [60]: 5.38 µM (inactive) | GI50 [61]: 6.76 µM (inactive) | GI50 [62]: 21.7 µM (inactive) | GI50 [63]: 15.2 µM (inactive) | GI50 [64]: 2.53 µM (inactive) | GI50 [65]: 5.12 µM (inactive) | GI50 [66]: 6.87 µM (inactive)
